Patent US11590093B2, “Kit, composition, and combination therapy for fragile X syndrome” (priority 2018, dated 2023)
Entries after “also recorded” stand apart in the source; their conditions may differ.

Key:
Conditions in all cases: osmotic minipumps s.c. 15 days, sulindac 5 mg/kg, metoprolol 10 mg/kg, ibudilast 3 mg/kg, sertraline 1 mg/kg, quercetin 1 mg/kg (100 mg/kg in combination), cannabidiol 5 mg/kg
[1] = system: Fmr1 KO2 mice; assay: Open field (hyperactivity, locomotor activity); type: in vivo
Excerpt: (§1) The Fmr1 KO2 it is both, protein and mRNA null. In this study we used Fmr1 KO2 and wild-type (WT) littermates generated on a C57BL/6J background and repeatedly backcrossed onto a C57BL/6J background for more than eight generations.
(§2) There were four treatment groups per compound/compound combination in the study with 10 male mice used per treatment group (all at 8 weeks of age): Group 1: Fmr1 KO2 mice treated with vehicle (Fmr1 KO2-V), Group 2: wild-type littermate mice treated with vehicle (WT-V), Group 3: Fmr1 KO2 mice treated with compounds (Fmr1 KO—[name of drug(s)]) and Group 4: wild-type littermate mice treated with compounds (WT—[name of drug(s)]).
The open-field apparatus was used to test hyperactivity. The apparatus was a gray PVC-enclosed arena […] divided into a 10×10 cm grid. Mice were brought to the experimental room 5-20 min before testing. A mouse was placed into a corner square facing the corner and observed for 3 min. The number of squares entered by the whole body (locomotor activity) were counted. The movement of the mouse around the field was recorded with a video tracking device for 3 min (version NT4.0, Viewpoint).

[2] = system: Fmr1 KO2 mice
Excerpt: as §1, §2
The test was performed in individual cages. Normal bedding covered the floor to a depth of 0.5 cm. Each cage was supplied with a “Nestlet,” a 5 cm square of pressed cotton batting (Ancare). Mice were placed individually into the nesting cages 1 hr. before the dark phase, and the results were assessed the next morning. Nest building was scored on a 5 point scale.
Score 1: The Nestlet was largely untouched (>90% intact).
Score 2: The Nestlet was partially torn up (50-90% remaining intact).
Score 3: The Nestlet was mostly shredded but often there was no identifiable nest site: <50% of the Nestlet […]

[3] = system: Fmr1 KO2 mice; remark: listed apart in the source
Excerpt: as §1, §2
The dependent measure used in contextual fear conditioning was a freezing response following a pairing of an unconditioned stimulus (foot shock), with a conditioned stimulus, a particular context. Freezing is a species-specific response to fear, which has been defined as “absence of movement except for respiration”. This may last for seconds to minutes depending on the strength of the aversive stimulus, the number of presentations, and the degree of learning achieved by the subject. Testing involved placing the animal in a novel environment (dark chamber), providing an aversive stimulus (a 1-sec electric shock, 0.2 mA, to the paws), and then removing it.

[4] = system: Fmr1 KO2 mice; assay: Social interaction, three-chambered sociability task; type: in vivo
Experimental: In the three-chambered sociability task, a subject mouse was evaluated for its exploration of a novel social stimulus (novel mouse). The three-chambered social approach task monitors direct social approach behaviors when a subject mouse is presented with the choice of spending time with either a novel mouse or an empty cup. Sociability is defined as the subject mouse spending more time in the chamber containing the mouse than in the empty chamber. Preference for social novelty is defined as spending more time in the chamber with the novel mouse. The apparatus is a rectangular three-chamber box, where each chamber measures 20 cm (length)×40.5 cm (width)×22 cm (height). Dividing walls are made from clear perplex, with small openings (10 cm width×5 cm height) that allow access into each chamber. The three chamber task was lit from below (10 lux). The mice were allowed to freely explore the three-chamber apparatus over three 10 min trials. During the trial one wire cup was placed upside down in one of the side chambers and a novel mouse was placed under another wire cup in the other side chamber (novel mouse stimulus), leaving the middle chamber empty. The location of the novel mouse across trials was counterbalanced to minimize any potential confound due to a preference for chamber location. The time spent exploring the novel mice was scored as exploration ratio.

SMILES	Open field: hyperactivity [1]	Nesting behavior [2]	Contextual fear conditioning (learning and memory) [3]	Sociability (exploration of novel mouse) [4]	Sociability (exploration of novel mouse) ([4]; listed as Sulindac)
COCCc1ccc(OCC(O)CNC(C)C)cc1.O=C(O)C(O)C(O)C(=O)O (racemic) [metoprolol, (±) 1-(Isopropylamino)-3-[p-(β-methoxyethyl)phenoxy]-2-propanol (+)-tartrate salt]	normalized Fmr1 KO2 mice hyperactivity; also recorded: normalize hyperactivity	partially rescued; also recorded: partially rescue nesting behavior and sociability	fails to improve the learning deficits	No significant difference was found in sociability; also recorded: partially rescue nesting behavior and sociability	–
O=c1c(O)c(-c2ccc(O)c(O)c2)oc2cc(O)cc(O)c12 [quercetin]	–	–	neither sulindac nor quercetin alone fully rescues fear conditioning	–	–
CN[C@H]1CC[C@@H](c2ccc(Cl)c(Cl)c2)c2ccccc21 [sertraline]	–	–	neither sulindac nor sertraline alone rescues sociability or fear conditioning	neither sulindac nor sertraline alone rescues sociability or fear conditioning	–
CC1=C(CC(=O)O)c2cc(F)ccc2/C1=C\c1ccc([S+](C)[O-])cc1 (stereo not drawn) [sulindac, (Z)-5-fluoro-2-methyl-1-[[p-(methylsulfinyl)phenyl]methylene]-1H-indene-3-acetic acid]	normalizes hyperactivity; also recorded: fully rescuing open field and nesting behavior	normalization in nesting behavior; also recorded: fully rescuing open field and nesting behavior	ameliorates the Fmr1 KO deficit in learning and memory; also recorded: partially rescuing contextual fear conditioning and sociability; also recorded: neither sulindac nor sertraline alone rescues sociability or fear conditioning; also recorded: neither sulindac nor quercetin alone fully rescues fear conditioning	partially rescuing contextual fear conditioning and sociability; also recorded: neither sulindac nor ibudilast alone rescues sociability; also recorded: neither sulindac nor sertraline alone rescues sociability or fear conditioning	partially improved such impairment
